In brackets after ≈: the same amount, converted by molar mass. Activity calls are given as the source filed them. The calls are words filed in the database; no cut-off is given here.
What was measured:
Salmonella typhimurium [1] = assay: Antimicrobial activity against PR-39-resistant Salmonella enterica serovar Typhimurium LT2 DA10899 harboring Q179Stop mutant gene by Etest; type: functional
Salmonella typhimurium [2] = assay: Antimicrobial activity against PR-39-resistant Salmonella enterica serovar Typhimurium LT2 DA6192 by Etest; type: functional
Salmonella typhimurium [3] = assay: Antimicrobial activity against PR-39-resistant sbmA-deficient Salmonella enterica serovar Typhimurium LT2 DA12088 by Etest; type: functional
Salmonella typhimurium [4] = assay: Antimicrobial activity against Salmonella enterica serovar Typhimurium LT2 at 8 uM after 24 hrs; type: functional, organism-based; settings: Salmonella enterica subsp. enterica serovar Typhimurium
Salmonella typhimurium [5] = assay: Antimicrobial activity against sbmA-deficient Salmonella enterica serovar Typhimurium LT2 DA12088 at 8 uM after 24 hrs; type: functional, organism-based; settings: Salmonella enterica subsp. enterica serovar Typhimurium str. LT2
Salmonella typhimurium [6] = assay: Antimicrobial activity against Salmonella enterica serovar Typhimurium LT2 by Etest; type: functional, Salmonella enterica subsp. enterica serovar Typhimurium
Salmonella typhimurium [7] = assay: Antimicrobial activity against Salmonella enterica serovar Typhimurium LT2 DA10899 harboring Q179Stop mutant gene at 16 uM after 24 hrs; type: functional, organism-based; settings: Salmonella enterica subsp. enterica serovar Typhimurium str. LT2
Salmonella typhimurium [8] = assay: Antimicrobial activity against sbmA-deficient Salmonella enterica serovar Typhimurium LT2 DA12088 assessed as log increase in survival rate at 16 uM after 24 hrs relative to wild type; type: functional
Salmonella typhimurium [9] = assay: Antimicrobial activity against Salmonella enterica serovar Typhimurium LT2 DA10897 harboring sbmA W373Stop mutant gene by Etest; type: functional
Salmonella typhimurium [10] = assay: Antimicrobial activity against Salmonella enterica serovar Typhimurium LT2 DA10898 harboring deletion of bp 967 in sbmA gene by Etest; type: functional
Salmonella typhimurium [11] = assay: Antimicrobial activity against sbmA-deficient Salmonella enterica serovar Typhimurium LT2 DA13090 harboring sbmA gene by Etest in presence of arabinose; type: functional
Salmonella typhimurium [12] = assay: Antimicrobial activity against Salmonella enterica serovar Typhimurium LT2 DA10902 harboring deletion of bp 843-844 in sbmA gene by Etest; type: functional
Salmonella typhimurium [13] = assay: Antimicrobial activity against Salmonella enterica serovar Typhimurium LT2 DA6192 by Etest; type: functional
Salmonella typhimurium [14] = assay: Antimicrobial activity against sbmA-deficient Salmonella enterica serovar Typhimurium LT2 DA12088 at 16 uM after 24 hrs; type: functional, organism-based; settings: Salmonella enterica subsp. enterica serovar Typhimurium str. LT2
Salmonella typhimurium [15] = assay: Antimicrobial activity against Salmonella enterica serovar Typhimurium LT2 DA10913 harboring sbmA C67Stop mutant gene by Etest; type: functional
Salmonella typhimurium [16] = assay: Antimicrobial activity against Salmonella enterica serovar Typhimurium LT2 DA10907 harboring sbmA E287K mutant gene by Etest; type: functional
Salmonella typhimurium [17] = assay: Antimicrobial activity against sbmA-deficient Salmonella enterica serovar Typhimurium LT2 DA12088 assessed as log increase in survival rate at 4 uM after 24 hrs relative to wild type; type: functional
Salmonella typhimurium [18] = assay: Antimicrobial activity against sbmA-deficient Salmonella enterica serovar Typhimurium LT2 DA12088 assessed as log increase in survival rate at 8 uM after 24 hrs relative to wild type; type: functional
Salmonella typhimurium [19] = assay: Antimicrobial activity against Salmonella enterica serovar Typhimurium LT2 at 16 uM after 24 hrs; type: functional, organism-based; settings: Salmonella enterica subsp. enterica serovar Typhimurium
Salmonella typhimurium [20] = assay: Antimicrobial activity against Salmonella enterica serovar Typhimurium LT2 DA10905 harboring sbmA L379P mutant gene by Etest; type: functional
Salmonella typhimurium [21] = assay: Antimicrobial activity against Salmonella enterica serovar Typhimurium LT2 DA10914 harboring sbmA S251L mutant gene by Etest; type: functional
Salmonella typhimurium [22] = assay: Antimicrobial activity against Salmonella enterica serovar Typhimurium LT2 DA13088 harboring sbmA gene by Etest in presence of arabinose; type: functional
Salmonella typhimurium [23] = assay: Antimicrobial activity against Salmonella enterica serovar Typhimurium LT2 DA10912 harboring sbmA Y326C mutant gene by Etest; type: functional
Salmonella typhimurium [24] = assay: Antimicrobial activity against Salmonella enterica serovar Typhimurium LT2 DA14344 harboring sbmA Q179Stop gene by Etest in presence of arabinose; type: functional
Salmonella typhimurium [25] = assay: Antimicrobial activity against Salmonella enterica serovar Typhimurium LT2 DA10899 harboring Q179Stop mutant gene at 8 uM after 24 hrs; type: functional, organism-based; settings: Salmonella enterica subsp. enterica serovar Typhimurium str. LT2
Salmonella typhimurium [26] = assay: Antimicrobial activity against Salmonella enterica serovar Typhimurium LT2 DA10896 harboring sbmA T375K mutant gene by Etest; type: functional
Salmonella typhimurium [27] = assay: Antimicrobial activity against sbmA-deficient Salmonella enterica serovar Typhimurium LT2 DA12088 by Etest; type: functional
Salmonella typhimurium [28] = assay: Antimicrobial activity against Salmonella enterica serovar Typhimurium LT2 DA10899 harboring sbmA Q179Stop mutant gene by Etest; type: functional
[29] = Salmonella enterica subsp. enterica serovar Typhimurium str. LT2

In the case of `CC[C@H](C)[C@H](NC(=O)[C@H](CCCCN)NC(=O)[C@H](CCC(=O)O)NC(=O)[C@H](CCCCN)NC(=O)[C@H](CO)NC(=O)[C@H](CCCCN)NC(=O)[C@H](CCCNC(=N)N)NC(=O)[C@H](Cc1ccccc1)NC(=O)[C@H](Cc1ccccc1)NC(=O)[C@H](CC(=O)O)NC(=O)CNC(=O)[C@H](CC(C)C)NC(=O)[C@@H](N)CC(C)C)C(=O)NCC(=O)N[C@@H](CCCCN)C(=O)N[C@@H](CCC(=O)O)C(=O)N[C@@H](Cc1ccccc1)C(=O)N[C@@H](CCCCN)C(=O)N[C@@H](CCCNC(=N)N)C(=O)N[C@H](C(=O)N[C@H](C(=O)N[C@@H](CCC(N)=O)C(=O)N[C@@H](CCCNC(=N)N)C(=O)N[C@H](C(=O)N[C@@H](CCCCN)C(=O)N[C@@H](CC(=O)O)C(=O)N[C@@H](Cc1ccccc1)C(=O)N[C@@H](CC(C)C)C(=O)N[C@@H](CCCNC(=N)N)C(=O)N[C@@H](CC(N)=O)C(=O)N[C@@H](CC(C)C)C(=O)N[C@H](C(=O)N1CCC[C@H]1C(=O)N[C@@H](CCCNC(=N)N)C(=O)N[C@H](C(=O)N[C@@H](CCC(=O)O)C(=O)N[C@@H](CO)C(=O)O)[C@@H](C)O)C(C)C)[C@@H](C)CC)C(C)C)[C@@H](C)CC` [CATHELICIDIN], the MIC (Salmonella typhimurium [1]) is reported as 66 µg/mL (≈ 14.7 µM), the MIC (Salmonella typhimurium [2]) is reported as 66 µg/mL (≈ 14.7 µM) and the MIC (Salmonella typhimurium [3]) is reported as 66 µg/mL (≈ 14.7 µM).
H-GLVRKGGEKFGEKLRKIGQKIKEFFQKLALEIEQ-OH showed an MIC (Salmonella typhimurium [1]) of 23 µg/mL, an MIC (Salmonella typhimurium [2]) of 23 µg/mL and an MIC (Salmonella typhimurium [3]) of 30 µg/mL.
Molecule `CN(C)[C@@H]1C(O)=C(C(N)=O)C(=O)[C@@]2(O)C(O)=C3C(=O)c4c(O)cccc4[C@@](C)(O)[C@H]3C[C@@H]12` [TETRACYCLINE] has an MIC (Salmonella typhimurium [1]) of 3 µg/mL (≈ 6.75 µM), an MIC (Salmonella typhimurium [2]) of 3 µg/mL (≈ 6.75 µM) and an MIC (Salmonella typhimurium [3]) of 3 µg/mL (≈ 6.75 µM).
Molecule `CCn1cc(C(=O)O)c(=O)c2ccc(C)nc21` [NALIDIXIC ACID] has an MIC (Salmonella typhimurium [1]) of 4 µg/mL (≈ 17.2 µM), an MIC (Salmonella typhimurium [2]) of 4 µg/mL (≈ 17.2 µM) and an MIC (Salmonella typhimurium [3]) of 4 µg/mL (≈ 17.2 µM).
COLISTIN was tested, and the MIC (Salmonella typhimurium [1]; [29]) was 0.5 µg/mL, the MIC (Salmonella typhimurium [2]; [29]) was 0.5 µg/mL and the MIC (Salmonella typhimurium [3]; [29]) was 0.5 µg/mL.
`CC1(C)S[C@@H]2[C@H](NC(=O)[C@H](N)c3ccccc3)C(=O)N2[C@H]1C(=O)O` [AMPICILLIN] showed an MIC (Salmonella typhimurium [1]) of 0.75 µg/mL (≈ 2.15 µM), an MIC (Salmonella typhimurium [2]) of 0.75 µg/mL (≈ 2.15 µM) and an MIC (Salmonella typhimurium [3]) of 0.75 µg/mL (≈ 2.15 µM).
For `O=C(O)c1cn(C2CC2)c2cc(N3CCNCC3)c(F)cc2c1=O` [CIPROFLOXACIN], the MIC (Salmonella typhimurium [1]) was 0.008 µg/mL (≈ 0.0241 µM), the MIC (Salmonella typhimurium [2]) was 0.008 µg/mL (≈ 0.0241 µM) and the MIC (Salmonella typhimurium [3]) was 0.008 µg/mL (≈ 0.0241 µM).
With `NC[C@H]1O[C@H](O[C@H]2[C@H](O)[C@@H](O[C@H]3O[C@H](CO)[C@@H](O)[C@H](N)[C@H]3O)[C@H](N)C[C@@H]2N)[C@H](O)[C@@H](O)[C@@H]1O` [KANAMYCIN] the MIC (Salmonella typhimurium [1]) was 1.5 µg/mL (≈ 3.1 µM), the MIC (Salmonella typhimurium [2]) was 1.5 µg/mL (≈ 3.1 µM) and the MIC (Salmonella typhimurium [3]) was 1.5 µg/mL (≈ 3.1 µM).
With `O=C(N[C@H](CO)[C@H](O)c1ccc([N+](=O)[O-])cc1)C(Cl)Cl` [CHLORAMPHENICOL] the MIC (Salmonella typhimurium [1]) was 4 µg/mL (≈ 12.4 µM), the MIC (Salmonella typhimurium [2]) was 4 µg/mL (≈ 12.4 µM) and the MIC (Salmonella typhimurium [3]) was 4 µg/mL (≈ 12.4 µM).
Molecule `COCC1=C(C(=O)O)N2C(=O)[C@@H](NC(=O)/C(=N\OC)c3csc(N)n3)[C@H]2SC1` [CEFPODOXIME] has an MIC (Salmonella typhimurium [1]) of 0.38 µg/mL (≈ 0.889 µM), an MIC (Salmonella typhimurium [2]) of 0.38 µg/mL (≈ 0.889 µM) and an MIC (Salmonella typhimurium [3]) of 0.38 µg/mL (≈ 0.889 µM).
`CC(=O)OCC1=C(C(=O)O)N2C(=O)[C@@H](NC(=O)Cc3cccs3)[C@H]2SC1` [CEPHALOTHIN] showed an MIC (Salmonella typhimurium [1]) of 3 µg/mL (≈ 7.57 µM), an MIC (Salmonella typhimurium [2]) of 3 µg/mL (≈ 7.57 µM) and an MIC (Salmonella typhimurium [3]) of 3 µg/mL (≈ 7.57 µM).
Work on `O=C1CN(/N=C/c2ccc([N+](=O)[O-])o2)C(=O)N1` [NITROFURANTOIN] yielded an MIC (Salmonella typhimurium [1]) of 8 µg/mL (≈ 33.6 µM), an MIC (Salmonella typhimurium [2]) of 8 µg/mL (≈ 33.6 µM) and an MIC (Salmonella typhimurium [3]) of 8 µg/mL (≈ 33.6 µM).
For “H-RRRPRPPYLPRPRPPPFFPPRLPPRIPPGFPPRFPPRFP-NH2”, the Activity (Salmonella typhimurium [4]) was “inactive”, the Activity (Salmonella typhimurium [5]) was “inactive” and the MIC (Salmonella typhimurium [6]) was 3 µM. For the same molecule, the Activity (Salmonella typhimurium [7]) was “inactive”, the FC (Salmonella typhimurium [8]) was 4 and the MIC (Salmonella typhimurium [9]) was 7 µM. For the same molecule, the MIC (Salmonella typhimurium [10]) was 7 µM, the MIC (Salmonella typhimurium [11]) was 3 µM and the MIC (Salmonella typhimurium [12]) was 7 µM. The MIC (Salmonella typhimurium [13]) was 2 µM, the Activity (Salmonella typhimurium [14]) was “inactive” and the MIC (Salmonella typhimurium [15]) was 7 µM. It also gave an MIC (Salmonella typhimurium [16]) of 7 µM, an FC (Salmonella typhimurium [17]) of 4 and an FC (Salmonella typhimurium [18]) of 4. For the same molecule, the Activity (Salmonella typhimurium [19]) was “inactive”, the MIC (Salmonella typhimurium [20]) was 7 µM and the MIC (Salmonella typhimurium [21]) was 7 µM. It also gave an MIC (Salmonella typhimurium [22]) of 1.5 µM, an MIC (Salmonella typhimurium [23]) of 5 µM and an MIC (Salmonella typhimurium [1]) of 28 µg/mL. For the same molecule, the MIC (Salmonella typhimurium [24]) was 3 µM, the MIC (Salmonella typhimurium [2]) was 8.5 µg/mL and the Activity (Salmonella typhimurium [25]) was “inactive”. For the same molecule, the MIC (Salmonella typhimurium [26]) was 6 µM, the MIC (Salmonella typhimurium [3]) was 28 µg/mL and the MIC (Salmonella typhimurium [27]) was 6 µM. It also gave an MIC (Salmonella typhimurium [28]) of 6 µM.
`CN[C@@H]1[C@H](O[C@H]2[C@H](O[C@H]3[C@H](O)[C@@H](O)[C@H](N=C(N)N)[C@@H](O)[C@@H]3N=C(N)N)O[C@@H](C)[C@]2(O)C=O)O[C@@H](CO)[C@H](O)[C@H]1O` [STREPTOMYCIN] gave an MIC (Salmonella typhimurium [1]) of 3 µg/mL (≈ 5.16 µM), an MIC (Salmonella typhimurium [2]) of 3 µg/mL (≈ 5.16 µM) and an MIC (Salmonella typhimurium [3]) of 3 µg/mL (≈ 5.16 µM).
BLEOMYCIN showed an MIC (Salmonella typhimurium [1]; [29]) of 1.8 µg/mL, an MIC (Salmonella typhimurium [2]; [29]) of 0.4 µg/mL and an MIC (Salmonella typhimurium [3]; [29]) of 1.8 µg/mL.
Molecule `CO/N=C(\C(=O)N[C@@H]1C(=O)N2C(C(=O)O)=C(COC(N)=O)CS[C@H]12)c1ccco1` [CEFUROXIME] has an MIC (Salmonella typhimurium [1]) of 4 µg/mL (≈ 9.43 µM), an MIC (Salmonella typhimurium [2]) of 4 µg/mL (≈ 9.43 µM) and an MIC (Salmonella typhimurium [3]) of 4 µg/mL (≈ 9.43 µM).
`CO/N=C(\C(=O)N[C@@H]1C(=O)N2C(C(=O)[O-])=C(C[N+]3(C)CCCC3)CS[C@H]12)c1csc(N)n1` [CEFEPIME] showed an MIC (Salmonella typhimurium [1]) of 0.064 µg/mL (≈ 0.133 µM), an MIC (Salmonella typhimurium [2]) of 0.064 µg/mL (≈ 0.133 µM) and an MIC (Salmonella typhimurium [3]) of 0.064 µg/mL (≈ 0.133 µM).
Work on H-GLLRKGGEKIGEKLKKIGQKIKNFFQKLVPQPEQ-OH yielded an MIC (Salmonella typhimurium [1]) of 32 µg/mL, an MIC (Salmonella typhimurium [2]) of 32 µg/mL and an MIC (Salmonella typhimurium [3]) of 32 µg/mL.

Reference: ChEMBL document CHEMBL1275481, “Mechanism and fitness costs of PR-39 resistance in Salmonella enterica serovar Typhimurium LT2” (2008)
